These are literature values, as cited in patent publication US10568327B1, “Method of controlling phytopathogenic diseases on turfgrass” (Syngenta Crop Protection LLC, priority 2012, dated 2020).

Like-named read-outs stand apart in the source and are kept apart here.

The subject of this data set is creeping bentgrass greens.

Turning to `CSC(=O)c1cccc2nnsc12` [acibenzolar-S-methyl, S-methyl benzo[1,2,3]thiadiazole-7-carbothioate], the Turf quality result is on record as “below standard” (6.1 grams/1,000 square meters, with reduced chlorothalonil rates, creeping bentgrass greens, Fry et al. 2006) and “unacceptable” (with chlorothalonil at lower than recommended rate, creeping bentgrass putting greens, Zhang et al. 2005).
